Source: patent US4925835A, “Aziridinyl putrescine containing compositions and their uses in treating prostate cancer” (priority 1987, dated 1990)

Test system: PC-3 cells
Assay: Polyamine assays: intracellular polyamine levels by HPLC
Assay type: cell-based, human
Experimental: One h later the medium was aspirated and the cells were rinsed with cold HBSS. Three plates were treated with dilute trypsin to release the cells from the plate and provide a single cell suspension. The viability of the cells and the number of cells per plate were determined by trypan blue exclusion and counting with the aid of a hemocytometer. […] The other three plates were extracted with 0.4N perchloric acid and the polyamines were measured by fluorescence following postcolumn derivatization with o-phthalaldehyde following separation by the reverse phase ion-pair high performance liquid chromatography procedure of Wagner et al., J. Chomatogr., 227: 349-368, 1982.
In Table 2 are listed the values for the triplicate assays of the concentrations of polyamine observed in nontreated cells, cells treated with 1-(4-aminobutyl) aziridine for 1 h, cells pretreated for 48 h with 1 mM difluoromethylornithine and then incubated in drug free medium for 1 h, or cells pretreated for 48 h with difluoromethylornithine, rinsed free of difluoromethylornithine, and then incubated with 25 μM 1-(4-aminobutyl)aziridine for 1 h. All groups had cell viabilities greater than 95% and cell numbers were 4.9±0.6 (SE), 4.9±0.7, 4.8±0.4, and 4.6±0.4×10^6 cells for the control, 1-(4-aminobutyl) aziridine, difluoromethylornithine, and difluoromethylornithine+1-(4-aminobutyl) aziridine groups, respectively. The apparent amount of 1-(4-aminobutyl) aziridine in the difluoromethylornithine-treated cells was 3.7 times that of the 1-(4-aminobutyl) aziridine-only-treated cells. No N^8 -acetylspermidine, acetylputrescine, or cadaverine was detected in any group. A peak was detected at a wavelength of 254 nm in the difluoromethylornithine treatment groups that corresponds to the retention time of decarboxylated S-adenosylmethionine.
^a PC-3 cells were incubated with or without 1 mM DFMO for 48 h. Cell
were then rinsed free of DFMO and incubated for 1 h with 25 μM AZP. Th
cells were washed free of AZP by three rinses of HBSS. With one set of
triplicate plates, the cells were resuspended and counted by hemocytomete
and viability was determined by trypan dye exclusion (viability > 95%).
Another set triplicate plates was extracted with icecold perchloric acid
and filtered and the polyamine concentrations were determined by HPLC.
^b Mean ± SE for a triplicate assay. Histamine is included as a […]

[1] = PC-3, ±1 mM DFMO 48 h, then ±25 μM AZP 1 h, mean ± SE

## NCCCCN1CC1 [AZP, 1-(4-aminobutyl) aziridine]
25 μM AZP 1 h, 1 mM DFMO 48 h pretreatment
  Apparent amount of AZP in DFMO-treated cells relative to AZP-only-treated cells: 3.7 times
PC-3, ±1 mM DFMO 48 h, then 25 μM AZP 1 h, mean ± SE
  Polyamine levels: AZP: 115 ± 32 pmol/10^6
PC-3, ±1 mM DFMO 48 h, then ±25 μM AZP 1 h, SE
  Cell numbers at end of treatment: 4.9±0.7 ×10^6 cells
[1]
  Polyamine levels: Hist (histamine, nonpolyamine control): 86 ± 25 pmol/10^6
  Polyamine levels: NaSpm (N-acetylspermine): 125 ± 28 pmol/10^6
  Polyamine levels: PUT (putrescine): 2520 ± 170 pmol/10^6
  Polyamine levels: Spd (spermidine): 2884 ± 100 pmol/10^6
  Polyamine levels: Spm (spermine): 3604 ± 323 pmol/10^6
